Data published in patent US20060229264A1, “Crystalline 6-n-pyridylmethylaminoindolocarbazole compounds” (priority 2003, published 2006).

Assays:
Assay type in all cases: physicochemical
[1] = Solid thermostability test (accelerated test at 80° C. in tightly closed vials); conditions: after 4 weeks
Method: A solid thermostability test of amorphous free bases and crystals of the compounds represented by the formula (II), the formula (III) and the formula (IV) is shown in Table 1. This test is an accelerated test conducted at 80° C. in tightly closed vials.

[2] = Solid light stability test (25° C., 2000 lux light source, tight-closed vials); conditions: after 4 weeks
Method: A solid light stability test of amorphous free bases and crystals of the compounds represented by the formula (II), the formula (III) and the formula (IV) is shown in Table 2. This test was carried out at 25° C. under the light source of 2000 luxes in tight-closed vials.

[3] = Test on solubility in water
Description: Solubilities of crystals of intramolecular salts of the compounds of the formulae (II), (III) and (IV) and the corresponding amorphous free bases in water are shown below.

[4] = Hygroscopicity test (moisture sorption analyzer); conditions: for Changes in weight under dehumidifying condition (desorption) compared with humidifying condition: desorption versus adsorption of water, FIG. 3 / FIG. 4; for Weight change rate upon humidification: relative humidity changed from 30% to 75% (adsorption process of water)
Description: Comparing the hygroscopicity of amorphous free base of the compound represented by the above formula (II) with that of crystals of hydrochloride of the same compound, the weight of the amorphous free base increased by 7.6% under the moisturized condition (adsorption process of water), while the weight of the crystal increased as slightly as 1.5% in the case where the comparison was done changing the humidity from 30% to 75% which is the humidity for usual preservation. Thus, the weight change rate of the amorphous free base of the compound represented by the formula (II) upon humidification (relative humidity changes from 30% to 75%) was 7.6%. On the other hand, the weight change rate of the crystals of hydrochloride of the compound represented by the formula (II) upon humidification (relative humidity changes from 30% to 75%) was 1.5%, therefore, the influence by humidification was very little.
Hygroscopicity test was conducted by IGAsorp Moisture Sorption Analyzer, manufacture by Hiden Analytical Limited (refer to FIG. 3).

SMILES	Residual Rate (thermostability of solid) [1]	Residual Rate (light stability of solid) [2]	solubility [3]	Changes in weight under dehumidifying condition (desorption) compared with humidifying condition [4]	Weight change rate upon humidification [4]	Solubility in water ([3]; listed as Amorphous free base of the compound represented by the formula (II))
O=C1c2c(c3c4ccc(O)cc4n(C4OC(CO)C(O)C(O)C4O)c3c3[nH]c4cc(O)ccc4c23)C(=O)N1NCc1cccc(CO)n1 (centres unmarked)	66.6%	78.9%	≤ 1 µg/mL			
O=C1c2c(c3c4ccc(O)cc4n(C4OC(CO)C(O)C(O)C4O)c3c3[nH]c4cc(O)ccc4c23)C(=O)N1NCc1ccncc1 (centres unmarked)			≤ 1 µg/mL			
Cl.O=C1c2c(c3c4ccc(O)cc4n(C4OC(CO)C(O)C(O)C4O)c3c3[nH]c4cc(O)ccc4c23)C(=O)N1NCc1ccncc1CO (centres unmarked)		94.3%	10000 to 50000 µg/mL	nearly the same	1.5%	
Cl.O=C1c2c(c3c4ccc(O)cc4n(C4OC(CO)C(O)C(O)C4O)c3c3[nH]c4cc(O)ccc4c23)C(=O)N1NCc1ccncc1 (centres unmarked)	98.4%	95.8%	10000 to 50000 µg/mL	nearly the same	0.6%	

Other lines, results leading:

Residual Rate (thermostability of solid) [1]	Residual Rate (light stability of solid) [2]	solubility [3]	Changes in weight under dehumidifying condition (desorption) compared with humidifying condition [4]	Weight change rate upon humidification [4]	Solubility in water ([3]; listed as Amorphous free base of the compound represented by the formula (II))	SMILES
87.8%	89.5%		greatly different	7.6%	not more than 0.001 mg/mL	O=C1c2c(c3c4ccc(O)cc4n(C4OC(CO)C(O)C(O)C4O)c3c3[nH]c4cc(O)ccc4c23)C(=O)N1NCc1ccncc1CO (centres unmarked) [Amorphous free base of the compound of the formula (II)]
82.9%	84.6%		significantly different	2.8%		O=C1c2c(c3c4ccc(O)cc4n(C4OC(CO)C(O)C(O)C4O)c3c3[nH]c4cc(O)ccc4c23)C(=O)N1NCc1ccncc1 (centres unmarked) [Amorphous free base of the compound of the formula (IV)]
	95.6%					O=C1c2c(c3c4ccc(O)cc4n(C4OC(CO)C(O)C(O)C4O)c3c3[nH]c4cc(O)ccc4c23)C(=O)N1NCc1ccncc1CO (centres unmarked) [Crystals of free base of the compound of the formula (II)]
99.7%	99.5%					O=C1c2c(c3c4ccc(O)cc4n(C4OC(CO)C(O)C(O)C4O)c3c3[nH]c4cc(O)ccc4c23)C(=O)N1NCc1ccncc1 (centres unmarked) [Crystals of free base of the compound of the formula (IV)]
99.1%						O=C1c2c(c3c4ccc(O)cc4n(C4OC(CO)C(O)C(O)C4O)c3c3[nH]c4cc(O)ccc4c23)C(=O)N1NCc1ccncc1CO (centres unmarked) [Crystals of methanesulfonate of the compound of the formula ]
